Laboratory results from patent publication US20160024204A1, “METHODS FOR PRODUCING ANTIBODIES” (BRISTOL-MYERS SQUIBB COMPANY, priority 2013, published 2016).

Tested on: P. pastoris
Assay: Effects of hydroxyurea on cell growth and antibody productivity in P. pastoris fermentation (Run 01MAY11)
Settings: 2.6-2.8 g/L hydroxyurea; for WB Titer (anti-IL-6 antibody): age 90 h, lots T5, T6 and T10

NC(=O)NO [Hydroxyurea]
WCW reached and maintained by hydroxyurea treatment lots (control lots ~400 g/Kg) (after peak cell density at 30-40 hours, FIG. 8): ~450 g/kg
WB Titer (anti-IL-6 antibody): 75.0 ± 2.7 Normalized
WB Titer (anti-IL-6 antibody) (listed as hydroxyurea): 75 Normalized
